Reference: patent US8410049B2, “Methods and kits for preventing hypoglycemia” (Cebix, priority 2009, dated 2013)

Key:
[1] = C-peptide plasma levels, time-resolved fluoroimmunoassay; format: in vivo, human; conditions: for Increase in pre-dosing morning C-peptide plasma level vs baseline: 4.5 months (visit 3)
Experimental: The sampling of C-peptide in plasma at visits 2 and 4 coincided with the clinical visit and the time between the most recent administration of the trial drug and sampling varied between patients. Thereby, the result of C-peptide concentrations in plasma was less suitable for pharmacokinetic evaluations, but the results contributed to the assessment of treatment compliance. C-peptide plasma levels were measured at baseline, and after 3 and 6 months of treatment. Analysis was performed by the Department of Clinical Chemistry Karolinska University Hospital, Solna using a time-resolved fluoroimmunoassay (AutoDelfia, Wallac Oy, Turku, Finland). […] The plasma levels of C-peptide attained in this study ranged from about 0.2 nM to a maximum of about 6 nM in the high dose group.

[2] = tested on: type 1 diabetes patients with peripheral neuropathy; test: Clinical laboratory evaluation: hematology, clinical chemistries, urinalysis; format: in vivo, human; conditions: following the study treatment
Description: Before starting the study, the investigator supplied the Sponsor with a list of the normal laboratory ranges and units of measurement for the laboratory variables to be determined during the study at the site. All abnormal laboratory (those out of the normal range) values required comments on the CRF, regardless of the clinical significance: • Error—Include improper sample preparation, hemolysis, delayed transit to laboratory, etc. • Not relevant—Abnormality that was not alarming. • Patient condition—Abnormality that was a consequence of the patient's disease, age, etc. • Adverse event—Clinically relevant abnormal value that cannot be explained by the above assessment flags. Adverse Event/Serious Adverse Event CRF was filled in.
Descriptive statistics were used for safety variables.

[3] = Bioavailability and expected plasma concentration of subcutaneously administered C-peptide; format: in vivo, human; conditions: low dose 500 nmoL/24 h given 4 times daily
Experimental: The dose selection is based on data from previous studies, in which C-peptide has been replaced for 3 months (600 nmoL/24 h) and an effect on albumin excretion and sensory nerve conduction velocity has been observed (Johansson et al., 2000; Ekberg et al., 2003). In order to maintain adequate levels of C-peptide for as many hours of the day as possible, the daily dose was divided into four doses, injected subcutaneously using Disetronic Pen 25, and administered in the morning, at lunch, at dinner, and at bedtime. […] To determine if C-peptide at a higher dose has an optimal effect, a 3 times higher dose (1,500 nmoL/24 h) was also administered.
The low-dose regimen was expected to give a mean physiological plasma concentration of ˜1 nmoL/L during the 24 h period. The high dose regimen was expected to result in concentrations ˜3 times those of the low dose regimen. The actual exposure is described in section above on “C-peptide concentrations”. […] The sampling of C-peptide in plasma at visits 2 and 4 coincided with the clinical visit and the time between the most recent administration of the trial drug and sampling varied between patients. Thereby, the results of C-peptide concentrations in plasma became less suitable for pharmacokinetic evaluations.

[4] = subcutaneously administered; cited from earlier work
[5] = tested on: type 1 diabetes patients with peripheral neuropathy; test: Adverse events incl. severe hypoglycemic events and hypoglycemic coma; conditions: for AEs of any severity: Tooth ache: Gastrointestinal Disorders
[6] = Low-dose, ITT data set, Infections and infestations
[7] = Low-dose, PP data set, Infections and infestations
[8] = Low-dose, PP data set, Injury poisoning, procedural complications
[9] = Low-dose, PP data set, Investigations

Compound: CC(C)C[C@H](NC(=O)[C@H](C)NC(=O)[C@H](CC(C)C)NC(=O)[C@@H]1CCCN1C(=O)[C@H](CCC(N)=O)NC(=O)[C@H](CC(C)C)NC(=O)[C@H](CO)NC(=O)CNC(=O)[C@H](C)NC(=O)CNC(=O)[C@@H]1CCCN1C(=O)CNC(=O)CNC(=O)CNC(=O)[C@H](CC(C)C)NC(=O)[C@H](CCC(=O)O)NC(=O)[C@@H](NC(=O)[C@H](CCC(N)=O)NC(=O)CNC(=O)[C@@H](NC(=O)[C@H](CCC(N)=O)NC(=O)[C@H](CC(C)C)NC(=O)[C@H](CC(=O)O)NC(=O)[C@H](CCC(=O)O)NC(=O)[C@H](C)NC(=O)[C@@H](N)CCC(=O)O)C(C)C)C(C)C)C(=O)N[C@@H](CCC(=O)O)C(=O)NCC(=O)N[C@@H](CO)C(=O)N[C@@H](CC(C)C)C(=O)N[C@@H](CCC(N)=O)C(=O)O [C-peptide, Recombinant human C-peptide]
- Increase in pre-dosing morning C-peptide plasma level vs baseline ([1]; High-dose C-peptide, n=4): 0.13 ± 0.083 nmol/L
- Increase in pre-dosing morning C-peptide plasma level vs baseline ([1]; Low-dose C-peptide, n=8): 0.045 ± 0.092 nmol/L
- Accumulation following repeated C-peptide dosing ([1]; dose ranges of the study, 4.5 months): likely no significant accumulation
- level at time molar ([1]; human, plasma, sc, during treatment, maximum in the high dose group, read-out: Plasma levels of C-peptide attained): 0.2 to 6 nM
- Changes in clinical laboratory variables [2]: no significant changes in any of the variables
- Expected physiological mean plasma concentration [3]: ~1 nmoL/L
- Bioavailability [4]: approximately 80%
- AEs of severe intensity (S): Sepsis ([5]; High-dose, ITT data set, Infections and infestations): S (1)
- AEs of any severity: Tooth ache ([5]; High-dose, PP data set): 3
- AEs of any severity: Urinary tract infection ([5]; High-dose, PP data set, Infections and infestations): 1
- AEs of any severity: Skin infection ([5]; High-dose, PP data set, Skin and subcutaneous tissue disorders): 2
- AEs of moderate intensity (M): Acute HIV infection [5, 6]: M (1)
- AEs of moderate intensity (M): Borrelia infection [5, 6]: M (1)
- AEs of moderate intensity (M): Herpes zoster [5, 6]: M (1)
- AEs of moderate intensity (M): Skin infection ([5]; Low-dose, ITT data set, Skin and subcutaneous tissue disorders): M (1)
- AEs of any severity: Tooth ache ([5]; Low-dose, PP data set): 2
- AEs of any severity: Acute HIV infection [5, 7]: 1
- AEs of any severity: Borrelia infection [5, 7]: 1
- AEs of any severity: Herpes simplex [5, 7]: 1
- AEs of any severity: Herpeszoster [5, 7]: 1
- AEs of any severity: Influenza [5, 7]: 1
- AEs of any severity: Nasopharyngitis [5, 7]: 31
- AEs of any severity: Otitis [5, 7]: 1
- AEs of any severity: Pharyngitis [5, 7]: 1
- AEs of any severity: Sinusitis [5, 7]: 4
- AEs of any severity: Skin infection [5, 7]: 5
- AEs of any severity: Tonsilitis [5, 7]: 1
- AEs of any severity: Upper respiratory tract infection [5, 7]: 3
- AEs of any severity: Urinary tract infection [5, 7]: 3
- AEs of any severity: Joint sprain ankle [5, 8]: 1
- AEs of any severity: Rib fracture/injury [5, 8]: 1
- AEs of any severity: Skin injury [5, 8]: 2
- AEs of any severity: Elevated serum creatinine [5, 9]: 1
- AEs of any severity: Hepatic enzyme increase [5, 9]: 2
- AEs of any severity: Hyperkalaemia [5, 9]: 1
- AEs of any severity: Weight increased [5, 9]: 1
- Deaths ([5]; during the study): No deaths
